Measured values: US20030129629A1, “Methods and compositions for the identification, assessment, prevention, and therapy of human cancers” (Millennium Pharmaceuticals, Inc., priority 2000, published 2003)
Like-named read-outs stand apart in the source and are kept apart here.

Experiments:
[1] = tested on: 60 cancer cell lines (NCI 60 cancer cell line series); settings: cited from earlier work
[2] = tested on: 60 cancer cell lines (NCI 60 cancer cell line series); test: NCI-DTP in vitro cancer screen, sulforhodamine B (SRB) growth inhibition, 48 hour exposure; type: cell-based, human
Method in brief: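 NCI-DTP panel of 60 cancer cell lines plated day 0 at line-specific densities, exposed from day 1 to compound at 5 ten-fold-spaced doses in duplicate wells. After 48 h, cell mass stained with sulforhodamine B; −log GI50 derived from dose–response curves, averaged, and classed Low, Medium or High sensitivity.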

CN(Cc1cnc2nc(N)nc(N)c2n1)c1ccc(C(=O)N[C@@H](CCC(=O)O)C(=O)O)cc1 [Methotrexate]
2: classification of cell line as Low(1), Medium(2), High(3) sensitivity to compound ([2]; CNS SF-268 CL12014) | classification of cell line as Low(1), Medium(2), High(3) sensitivity to compound ([2]; CNS U251(I) CL12009) | classification of cell line as Low(1), Medium(2), High(3) sensitivity to compound ([2]; Colon COLO-250 CL4010) | classification of cell line as Low(1), Medium(2), High(3) sensitivity to compound ([2]; Colon HCC-2998 CL4002) | classification of cell line as Low(1), Medium(2), High(3) sensitivity to compound ([2]; Colon KM12 CL4017) | classification of cell line as Low(1), Medium(2), High(3) sensitivity to compound ([2]; Leukemia HL-60(I) CL7008) | classification of cell line as Low(1), Medium(2), High(3) sensitivity to compound ([2]; Leukemia RPMI-8226(I) CL7010) | classification of cell line as Low(1), Medium(2), High(3) sensitivity to compound ([2]; Melanoma SK-MEL-5 CL10007) | classification of cell line as Low(1), Medium(2), High(3) sensitivity to compound ([2]; NSCLC HOP-62 CL1026) | sensitivity classification Low(1)/Medium(2)/High(3) ([2]; NSCLC NCI-H23(I) CL1001) | sensitivity classification Low(1)/Medium(2)/High(3) ([2]; NSCLC NCI-H332M CL1017) | sensitivity classification Low(1)/Medium(2)/High(3) ([2]; Ovarian IGROV1 CL6010) | sensitivity classification Low(1)/Medium(2)/High(3) ([2]; Ovarian OVCAR-3 CL6001) | sensitivity classification Low(1)/Medium(2)/High(3) ([2]; Ovarian OVCAR-5 CL6003) | sensitivity classification Low(1)/Medium(2)/High(3) ([2]; Prostate DU-145 CL11003) | sensitivity classification Low(1)/Medium(2)/High(3) ([2]; Renal ACHN CL9023) | sensitivity classification Low(1)/Medium(2)/High(3) ([2]; Renal UO-31 CL9004)
7.5: −Log (GI50) ([1]; Melanoma M14 CL10014) | −Log (GI50) ([1]; Renal 786-0 CL9018)
5.1: −Log (GI50) ([1]; NSCLC HOP-92 CL1029)
1: classification of cell line as Low(1), Medium(2), High(3) sensitivity to compound ([2]; Breast BT-549 CL5013) | classification of cell line as Low(1), Medium(2), High(3) sensitivity to compound ([2]; Breast HS-578T CL5006) | classification of cell line as Low(1), Medium(2), High(3) sensitivity to compound ([2]; Breast MDA-MB-231 CL5005) | classification of cell line as Low(1), Medium(2), High(3) sensitivity to compound ([2]; Breast T-47D CL5014) | classification of cell line as Low(1), Medium(2), High(3) sensitivity to compound ([2]; Melanoma SK-MEL-2 CL10005) | classification of cell line as Low(1), Medium(2), High(3) sensitivity to compound ([2]; Melanoma SK-MEL-28 CL10008) | classification of cell line as Low(1), Medium(2), High(3) sensitivity to compound ([2]; NSCLC EKVX CL1008) | classification of cell line as Low(1), Medium(2), High(3) sensitivity to compound ([2]; NSCLC HOP-92 CL1029) | classification of cell line as Low(1), Medium(2), High(3) sensitivity to compound ([2]; NSCLC NCI-H226 CL1013) | sensitivity classification Low(1)/Medium(2)/High(3) ([2]; Ovarian OVCAR-4 CL6002) | sensitivity classification Low(1)/Medium(2)/High(3) ([2]; Renal A498 CL9013) | sensitivity classification Low(1)/Medium(2)/High(3) ([2]; Renal RXF-393 CL9016) | sensitivity classification Low(1)/Medium(2)/High(3) ([2]; Renal TK10 CL9024)
7.4: −Log (GI50) ([1]; Leukemia HL-60(I) CL7008)
3: classification of cell line as Low(1), Medium(2), High(3) sensitivity to compound ([2]; CNS SF-295 CL12015) | classification of cell line as Low(1), Medium(2), High(3) sensitivity to compound ([2]; CNS SF-539 CL12016) | classification of cell line as Low(1), Medium(2), High(3) sensitivity to compound ([2]; Colon HCT-15 CL4015) | classification of cell line as Low(1), Medium(2), High(3) sensitivity to compound ([2]; Colon HCT-116 CL4003) | classification of cell line as Low(1), Medium(2), High(3) sensitivity to compound ([2]; Leukemia K562(I) CL7005) | classification of cell line as Low(1), Medium(2), High(3) sensitivity to compound ([2]; Leukemia SR CL7019) | classification of cell line as Low(1), Medium(2), High(3) sensitivity to compound ([2]; Melanoma LOX IMVI CL10001) | classification of cell line as Low(1), Medium(2), High(3) sensitivity to compound ([2]; Melanoma UACC-62 CL10020) | classification of cell line as Low(1), Medium(2), High(3) sensitivity to compound ([2]; NSCLC A549/ATCC CL1004) | sensitivity classification Low(1)/Medium(2)/High(3) ([2]; NSCLC NCI-H460 CL1021) | sensitivity classification Low(1)/Medium(2)/High(3) ([2]; Renal SN12C CL9008)
5.0: −Log (GI50) ([1]; NSCLC EKVX CL1008)
